{"source": "patent US20220340566A1", "about": "“BENZYL AMINE-CONTAINING 5,6-HETEROAROMATIC COMPOUNDS USEFUL AGAINST MYCOBACTERIAL INFECTION” (priority 2019, published 2022)", "key": {"[1]": {"test_system": "Mycobacterium avium ATCC700898", "test": "Determination of IC85 against M. avium (resazurin fluorescence)", "type": "cell-based", "conditions": "Mycobacterium avium, ATCC700898, M. avium ATCC700898, CAMHB medium, 37° C., 3 days incubation then resazurin, fluorescence one day later; read-out: IC85"}, "[2]": {"test": "Metabolic stability test in pooled human liver microsomes", "type": "in vitro ADME", "conditions": "human liver microsomes 0.5 mg protein/mL, 1 mmol/L NADPH, 37° C., 30 minutes", "in_short": "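Remaining-rate readout: parent compound left after 30 min versus 0 min (set as 100%), measured by LC/MS/MS or SPE/MS. Oxidative reaction ran at 37° C. with 1 mmol/L NADPH, 0.5 mg protein/mL pooled human microsomes, 50 mmol/L Tris-HCl pH 7.4 buffer.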"}}}
{"smiles": "CCc1nc2cc(F)ccn2c1C(=O)NCc1ccc(O[C@H]2C[C@H](Oc3ccc(OC(F)(F)F)cc3)C2)c(F)c1.Cl", "note": "[Compound I-3-1]", "values": [{"measurement": "IC85", "setting": "[1]", "result": 54, "unit": "nM"}, {"measurement": "MS_h_% (remaining amount of compound after reaction, 0 minute = 100%)", "setting": "[2]", "result": 99.1, "unit": "%"}]}
{"smiles": "CCc1nc2ccc(Cl)cn2c1C(=O)NCc1ccc(-c2cccc(OC(F)(F)F)c2)c(F)c1", "note": "[Compound I-3-2]", "values": [{"measurement": "IC85", "setting": "[1]", "result": 2.3, "unit": "nM"}, {"measurement": "MS_h_% (remaining amount of compound after reaction, 0 minute = 100%)", "setting": "[2]", "result": 97.7, "unit": "%"}]}
{"smiles": "CCc1nc2ccc(Cl)cn2c1C(=O)NCc1ccc(-c2ccc(OC(C)C)cc2)c(F)c1", "note": "[Compound I-3-3]", "values": [{"measurement": "IC85", "setting": "[1]", "result": 9.4, "unit": "nM"}, {"measurement": "MS_h_% (remaining amount of compound after reaction, 0 minute = 100%)", "setting": "[2]", "result": 96.1, "unit": "%"}]}
{"smiles": "Cc1ccn2c(C(=O)NCc3ccc(-c4ccc(OCC(F)(F)F)cc4)c(F)c3)c(C)nc2c1", "note": "[Compound I-3-4]", "values": [{"measurement": "IC85", "setting": "[1]", "result": 43, "unit": "nM"}, {"measurement": "MS_h_% (remaining amount of compound after reaction, 0 minute = 100%)", "setting": "[2]", "result": 94.6, "unit": "%"}]}
{"smiles": "[2H]c1c(C([2H])([2H])[2H])c([2H])c2nc(C)c(C(=O)NCc3ccc(C4CCN(c5ccc(OC(F)(F)F)cc5)CC4)c(F)c3)n2c1[2H]", "note": "[Compound I-3-5]", "values": [{"measurement": "IC85", "setting": "[1]", "result": 21, "unit": "nM"}, {"measurement": "MS_h_% (remaining amount of compound after reaction, 0 minute = 100%)", "setting": "[2]", "result": 93.7, "unit": "%"}]}
{"smiles": "Cc1cn2c(C(=O)NCc3ccc(N4CCC(c5ccc(OC(F)(F)F)cc5)CC4)c(F)c3)c(C)nc2s1.Cl", "note": "[Compound I-3-6]", "values": [{"measurement": "IC85", "setting": "[1]", "result": 260, "unit": "nM"}, {"measurement": "MS_h_% (remaining amount of compound after reaction, 0 minute = 100%)", "setting": "[2]", "result": 91.7, "unit": "%"}]}
{"smiles": "CCc1nc2ccc(Cl)cn2c1C(=O)NCc1ccc(-c2ccc(OC(F)(F)F)cc2)c(F)c1", "note": "[Compound I-3-7]", "values": [{"measurement": "IC85", "setting": "[1]", "result": 56, "unit": "nM"}, {"measurement": "MS_h_% (remaining amount of compound after reaction, 0 minute = 100%)", "setting": "[2]", "result": 89.5, "unit": "%"}]}
{"smiles": "COc1ccn2nc(C)c(C(=O)NCc3ccc(N4CCC(c5ccc(OC(F)(F)F)cc5)CC4)cc3)c2c1", "note": "[Compound I-3-8]", "values": [{"measurement": "IC85", "setting": "[1]", "result": 28, "unit": "nM"}, {"measurement": "MS_h_% (remaining amount of compound after reaction, 0 minute = 100%)", "setting": "[2]", "result": 87.1, "unit": "%"}]}
{"smiles": "Cc1ccn2c(C(=O)NCc3ccc(-c4ccc(OC(C)C)cc4)c(F)c3)c(C)nc2c1", "note": "[Compound I-3-9]", "values": [{"measurement": "IC85", "setting": "[1]", "result": 130, "unit": "nM"}, {"measurement": "MS_h_% (remaining amount of compound after reaction, 0 minute = 100%)", "setting": "[2]", "result": 85.9, "unit": "%"}]}
{"smiles": "Cc1cn2c(C(=O)NCc3ccc(N4CCC5(CCN(c6ccc(C(F)(F)F)cc6)CC5)CC4)c(F)c3)c(C)nc2s1", "note": "[Compound I-3-10]", "values": [{"measurement": "IC85", "setting": "[1]", "result": 29, "unit": "nM"}, {"measurement": "MS_h_% (remaining amount of compound after reaction, 0 minute = 100%)", "setting": "[2]", "result": 84.9, "unit": "%"}]}
{"smiles": "[2H]c1c(C([2H])([2H])[2H])c([2H])n2c(C(=O)NCc3ccc(-c4ccc(C(F)(F)F)cc4)cc3)c(C)nc2c1[2H]", "note": "[Compound I-3-11]", "values": [{"measurement": "IC85", "setting": "[1]", "result": 2.8, "unit": "nM"}, {"measurement": "MS_h_% (remaining amount of compound after reaction, 0 minute = 100%)", "setting": "[2]", "result": 84.7, "unit": "%"}]}
{"smiles": "Cc1cn2c(C(=O)NCc3ccc(N4CC=C(c5ccc(OC(F)(F)F)cc5)CC4)c(F)c3)c(C)nc2s1.Cl", "note": "[Compound I-3-12]", "values": [{"measurement": "IC85", "setting": "[1]", "result": 340, "unit": "nM"}, {"measurement": "MS_h_% (remaining amount of compound after reaction, 0 minute = 100%)", "setting": "[2]", "result": 84.4, "unit": "%"}]}
{"smiles": "Cc1cn2c(C(=O)NCc3ccc(N4CCC(c5ccc(OC(F)(F)F)cc5)CC4)c(Cl)c3)c(C)nc2s1.Cl", "note": "[Compound I-3-13]", "values": [{"measurement": "IC85", "setting": "[1]", "result": 350, "unit": "nM"}, {"measurement": "MS_h_% (remaining amount of compound after reaction, 0 minute = 100%)", "setting": "[2]", "result": 84, "unit": "%"}]}
{"smiles": "Cc1cn2c(C(=O)NCc3ccc(N4CCN(c5ccc(OC(F)(F)F)cc5)C(C)(C)C4)c(F)c3)c(C)nc2s1", "note": "[Compound I-3-14]", "values": [{"measurement": "IC85", "setting": "[1]", "result": 190, "unit": "nM"}, {"measurement": "MS_h_% (remaining amount of compound after reaction, 0 minute = 100%)", "setting": "[2]", "result": 82.7, "unit": "%"}]}
{"smiles": "[2H]c1c(C([2H])([2H])[2H])c([2H])n2c(C(=O)NCc3ccc(Oc4cccc(C(F)(F)F)c4)cc3)c(C)nc2c1[2H]", "note": "[Compound I-3-15]", "values": [{"measurement": "IC85", "setting": "[1]", "result": 230, "unit": "nM"}, {"measurement": "MS_h_% (remaining amount of compound after reaction, 0 minute = 100%)", "setting": "[2]", "result": 82.4, "unit": "%"}]}
{"smiles": "Cc1cn2c(C(=O)NCc3cc(F)c(N4CCC(c5ccc(OC(F)(F)F)cc5)CC4)c(F)c3)c(C)nc2s1.Cl", "note": "[Compound I-3-16]", "values": [{"measurement": "IC85", "setting": "[1]", "result": 110, "unit": "nM"}, {"measurement": "MS_h_% (remaining amount of compound after reaction, 0 minute = 100%)", "setting": "[2]", "result": 81.4, "unit": "%"}]}
{"smiles": "Cc1ccn2c(C(=O)NCc3ccc4oc(-c5ccc(OC(F)(F)F)cc5)nc4c3)c(C)nc2c1.Cl", "note": "[Compound I-3-17]", "values": [{"measurement": "IC85", "setting": "[1]", "result": 860, "unit": "nM"}, {"measurement": "MS_h_% (remaining amount of compound after reaction, 0 minute = 100%)", "setting": "[2]", "result": 81.1, "unit": "%"}]}
{"smiles": "CCc1nc2ccc(Cl)cn2c1C(=O)NCc1ccc(-c2ccc(OC(F)(F)F)cc2)nc1", "note": "[Compound I-3-18]", "values": [{"measurement": "IC85", "setting": "[1]", "result": 190, "unit": "nM"}, {"measurement": "MS_h_% (remaining amount of compound after reaction, 0 minute = 100%)", "setting": "[2]", "result": 80.9, "unit": "%"}]}
{"smiles": "Cc1ccn2c(C(=O)NCc3ccc(Oc4ccc(C(F)(F)F)cc4)cc3)c(C)nc2c1", "note": "[Compound I-3-19]", "values": [{"measurement": "IC85", "setting": "[1]", "result": 440, "unit": "nM"}, {"measurement": "MS_h_% (remaining amount of compound after reaction, 0 minute = 100%)", "setting": "[2]", "result": 80.9, "unit": "%"}]}
